Structure (SMILES)	melting point
COc1cc2c(c(Cl)c1Cl)SC(C1CCCCC1)C2O (stereo not drawn)	166 to 167 °C
CCNC(NC(C)=O)C(=O)NCc1ccccc1 (stereo not drawn)	123 to 125 °C
CC(C)(C)c1cc(C2CC(=O)N(CCCCCCN3C(=O)CC(c4cc(C(C)(C)C)c(O)c(C(C)(C)C)c4)C3=O)C2=O)cc(C(C)(C)C)c1O (stereo not drawn)	190 to 193 °C
COc1cc(P(c2ccccc2)c2ccccc2)c(Br)c(OC)n1	150 to 151 °C
O=C(O)c1ccc(NCC=C(c2ccc(Cl)cc2)c2ccc(Cl)cc2)cc1	231 to 235 °C
CCCc1c[nH]c(CCC(=O)N(C)C)c1	71 to 72 °C
NCCCCCC(=O)Nc1cccc(C(=O)NCCC(=O)O)c1	221 °C
Nc1cc(C(=O)O)cc(OCc2ccccc2)c1Cc1ccccc1	208 to 210 °C
CN(C)c1ncnc2c(NC3OC(CO)C(O)C3O)ncnc12 (stereo not drawn)	231 °C
CCCCCCCCCCNC(=O)c1ccc(N(CC(=O)OC)CC(=O)OC)cc1	104 to 106 °C
N#CCCn1nc(-c2ccc(OCc3ccccc3)cc2)sc1=O	135 °C
CCOc1c(C=O)cc2c3c(cccc13)-c1ccccc1-2	118 to 119 °C
CCCCCCCCCCCCCCCCCCOc1ccc(NC(=O)c2ccc(OC(C)=O)cc2)cc1	154 °C
CNC(=O)Oc1ccc2oc3ccccc3c2c1	155 to 156 °C
CC(C)(S)[C@@H](NC(=O)c1ccc(Br)cc1)C(=O)O	176 °C
CC(C)CCCC(C)C1CCC2C3=CC=C4CC(O)C(OCCCO)C(O)C4(C)C3CCC21C (stereo not drawn)	114 to 116 °C
Cc1nc(-c2ccccc2)nc(NCC(=O)N(C)c2ccccc2)c1Br	160 to 162 °C
N#Cc1c(N)oc2c1CCCC2	179 °C
CNc1c(C2=CC(C)(C)Oc3ccc(C#N)cc32)c(=O)c1=O	193 to 194 °C
O=c1cc[nH]c2c([N+](=O)[O-])cc(C(F)(F)F)cc12	153 to 156 °C

Structure (SMILES)	melting point
CCCCCC1=CCC(c2cc(F)c(C#N)c(F)c2)C=C1 (stereo not drawn)	59 °C
O=C1N(Cc2ccc(C(F)(F)F)o2)c2ccccc2C12COc1cc3c(cc12)OC(F)(F)O3 (stereo not drawn)	59 to 60 °C
CCc1nc2nc3cc(Cl)ccc3nc2n1C(=O)C=C(C)C	170 to 172 °C
NC1=Nc2ccc(OC(F)(F)F)cc2SC1	94 to 96 °C
O=S1(=O)NCN(C2CCCCCC2)c2cc(Cl)c(Cl)cc21	191 to 192 °C
CN(C)CCCNC(=O)N1C(=O)Cc2cc(Cl)ccc21	84 to 85 °C
CCOC(=S)CC/C(C)=C/Cc1c(O)c2c(c(C)c1OC)COC2=O	63 to 67 °C
N#Cc1ccc(-c2cccc(C=O)n2)cc1	158 to 159 °C
N#Cc1ccc2c(c1)C(=O)C1(CC1)O2	148 to 149 °C
CCC(CC)(CO)CCCS(=O)(=O)N=CN(C)C	87 to 88 °C
Nc1nc(C(F)(F)C(F)(F)F)nn1-c1c(Cl)cc(C(F)(F)F)cc1Cl	181 to 183 °C
c1ccc(-c2cnc3nncn3c2)cc1	231 °C
CCc1c(C(=O)c2cc(C)cc(C)c2)n(C/C=C/CO)c(=O)[nH]c1=O	172 to 173 °C
Cc1cccc2c(C(=O)C(=O)NC3=CC(=O)OC3)c(C)n(Cc3ccc(Cl)cc3)c12	283 to 285 °C
CCC1Cc2c(Br)cccc2C1O[Si](C)(C)C (stereo not drawn)	133 to 135 °C
COC(=O)Cc1nsc(NC(=O)OC)n1	167 to 169 °C
CC(=NO)c1ccc(OCc2ccccc2)c(CCCc2ccc(C(=O)NCCO)cc2)c1	131 to 132 °C
CN(Cc1ccc2c(Br)c(O)ccc2c1)C(=O)c1cn(Cc2ccccc2)c2ccccc12	181 to 182 °C
CCCCCCCCCCCCCCCCCCOC(=O)C(NC(C)=O)C(=O)OC (stereo not drawn)	75 to 77 °C

Next, values leading:

melting point	Structure (SMILES)
160 °C	Cc1ccc(S(=O)(=O)N2[C@@H](c3ncn(C)n3)CC[C@H]2c2ccc(F)cc2)cc1 (racemic)
47 to 51 °C	O=C(c1ccc(OC2CCCCC2N2CCCC2)c(F)c1)c1c(-c2ccc(OCCN3CCCC3)cc2)sc2cc(OCc3ccccc3)ccc12 (stereo not drawn)
149 to 150 °C	CCOC(=O)C1=C(C)NC(c2ccc(C)cc2)=C(C(=O)OCC)C1c1cccc([N+](=O)[O-])c1 (stereo not drawn)
124 to 125 °C	CS(=O)(=O)c1cc(CC(=O)O)cc2c1NC(C(F)(F)F)CC2 (stereo not drawn)
141 to 142 °C	Cc1ccc(C)n1-c1ccc2c(c1)ncn2-c1cccc(-n2ccnc2)c1
228 to 231 °C	FC(F)(F)c1cccnc1N1CCN(c2nc3ccc(Cl)cc3[nH]2)CC1
123 to 125 °C	CCS(=O)C1(Cl)CC2CC(=O)N2C1C(=O)OCc1ccccc1 (stereo not drawn)
80 °C	CCOC(=O)[C@@H](Cc1cccnc1)NC(C)=O
109 to 111 °C	COC(=O)C(C)(C)CCCOc1cc(C)c(N2C(=O)c3ccccc3C2=O)cc1C
190 to 193 °C	CCOCCOCCn1c(C=O)cc2c1CC(c1ccccc1Cl)C1C(=O)NC(=O)C21 (stereo not drawn)
139 to 140 °C	CCCC(Oc1cc(OC)ccc1C(=O)c1ccc(OCc2nc(-c3ccccc3)oc2C)cc1)C(=O)O (stereo not drawn)
190 °C	N#CNC(=O)c1cc2cc(N3CCN(CCCCc4c[nH]c5ccc(C#N)cc45)CC3)ccc2o1
168 to 169 °C	O=C(Nc1cccnn1)N1CCN(c2nccc(-c3ccc(F)cc3)n2)CC1
138 to 141 °C	O=C(Cl)c1cc2ccccc2oc1=O
218 to 219 °C	CC(C)c1cc(C(=O)Nc2cc(F)c(C(=O)O)c(F)c2)sc1C(C)C
298 to 299 °C	O=c1c2c(Cc3ccccc3)n[nH]c2c2cccnc2n1-c1cccc(F)c1
95 to 96 °C	O=C(O)CCCCCc1nn(-c2ccccc2)c2c1CCC2
152 to 157 °C	CN1CCN(c2ccc(Nc3ncc4ccc(Nc5ccccc5)n4n3)cc2)CC1
132 to 134 °C	CCN(CC)CC1CCCCN1CC#CCN1c2ccccc2C(=O)Nc2cccnc21 (stereo not drawn)
122 °C	O=S(=O)(N[C@H]1CC[C@H](CCN2CCN(c3nccc4c3OCC4)CC2)CC1)c1ccccc1

melting point	Structure (SMILES)
175 to 177 °C	O=C(O)C1CCc2cc(O)ccc2O1 (racemic)
111 to 115 °C	CCCn1c(=O)c2c(Cl)cc(Cl)cc2n(Cc2ccccc2)c1=O
99 to 100 °C	CCN(CC)CC(=O)Nc1ccc(-c2n[nH]c3c2Cc2ccccc2-3)cc1
271 °C	N#Cc1c(N2CCN(C(=O)c3cccs3)CC2)c2cccnc2n(Cc2ccc(F)cc2)c1=O
102 to 104 °C	CCOC(=O)c1c[nH]nc1NCc1ccc(OC)c(OC2CCCC2)c1
170 to 171 °C	CC1(C)CN=C2C(=O)c3cc(S(=O)(=O)N4CCc5ccccc54)ccc3N2C1
119 °C	O=S1(=O)NCCN(C2CC2)c2ccc(Oc3ccccc3)cc21
183 to 184 °C	COc1ccc2[nH]c(SCc3cc(N)c(Br)cn3)nc2c1
210 to 211 °C	C[C@@H](NC(=O)c1ccc(-c2ccc(C#N)cc2)s1)[C@](O)(Cn1cncn1)c1ccc(F)cc1F
141 to 142 °C	CCC(=CC(CNC(=O)c1cccnc1)=NO)C(C(C)C)[N+](=O)[O-] (stereo not drawn)
212 to 213 °C	COCc1c(C(=O)NN)ncc2[nH]c3cccc(OCc4ccccc4)c3c12
138 to 142 °C	O=C(Nc1c([N+](=O)[O-])cnn1-c1c(Cl)cc(S(=O)(=O)C(F)(F)F)cc1Cl)C(Cl)Cl
112 to 113 °C	Cc1ccc(S(=O)(=O)Oc2cccc3c2CCCN3)cc1
150 °C	Cc1cccc(NC(=O)NCC(=O)N2[C@@H](C(=O)OC(C)(C)C)C[C@@H](C#N)[C@H]2c2ccccc2)c1 (racemic)
231 to 232 °C	Cn1ncc2c1-c1c(Sc3ccccn3)sc(C(=O)O)c1CC2
179 to 183 °C	CC(=O)NC1CCc2[nH]c3c(F)cc(F)cc3c2C1 (stereo not drawn)
129 to 132 °C	O=C(O)c1ccc2oc(COCc3ccccc3)cc2c1
232 to 233 °C	CCCSc1cccc2c1C(=O)c1cccc(SCCC)c1C2=O
139 °C	COc1ccccc1C(=O)N1CCCC2=C1CCc1cc(Cl)ccc12
143 to 144 °C	COC(=O)c1c(C(=O)OC)c2sc3ccccc3n2c1C

melting point	Structure (SMILES)
178 to 179 °C	Cc1cc2c(-c3ccccc3)c(C=O)n(C)c(=O)c2cc1C
130 to 132 °C	COC(=O)CC(=O)Nc1ccccc1COc1ccc(C(C)=O)c(O)c1
70 °C	CN(C)C(=O)c1ccc(CNC(=O)C2Cc3ccccc3N2S(=O)(=O)c2ccc(-c3cccc(C(F)(F)F)c3)cc2)cc1 (stereo not drawn)
191 to 194 °C	COc1ccc(NC(=O)c2ccc(-c3ccncc3)s2)cc1N1CCN(C)CC1
141 to 142 °C	CCOC(=O)Cn1nc(-c2ccc(OC)cc2)cc(C(=O)NC)c1=O
292 to 296 °C	CCOC(=O)C(=C1SC(=S)N(CC(=O)O)C1=O)c1csc(NC(C)=O)n1
51 to 52 °C	Nc1ccc(Cl)cc1C(=O)c1ccccc1O
138 to 139 °C	CC(C)Nc1nc(-c2ccccc2)c(-c2ccc(=O)n(C(C)C)n2)s1
180 to 184 °C	COC(=O)c1cc(-n2cnnc2)c(C(F)(F)F)cc1NC(C)=O
117 to 124 °C	CC(C)(O)CC(O)c1cccc(OCc2ccc3ccccc3n2)c1 (stereo not drawn)
> 300 °C	Nc1c2c(nc3[nH]c4ccccc4c13)CCCC2=O
123 to 126 °C	Nc1c(F)c(N2CCC(C(N)c3cccnc3)C2)c(F)c2c1c(=O)c(C(=O)O)cn2C1CC1F (stereo not drawn)
140 to 160 °C	Cc1cccc(C(N)=O)c1Nc1nc(Nc2ccc3c(c2)N(C(C)C)C(=O)CCC3)ncc1Cl
140 to 141 °C	CC(C)c1nn(-c2ccc(C(F)(F)F)cn2)cc1CCCOc1c(F)cccc1CC(=O)O
222 to 225 °C	O=c1cc(SCc2ccc(O)cc2)oc2cc(O)cc(O)c12
50 °C	COC(=O)COc1cccc(CNC(=O)C2Cc3ccccc3N2S(=O)(=O)c2ccc(-c3cccc(C(F)(F)F)c3)cc2)c1 (stereo not drawn)
178 to 180 °C	CS(=O)(=O)c1ccc(-c2cnn(-c3ccc(F)c(F)c3)c(=O)c2Oc2ccc(F)cc2)cc1
116 to 118 °C	O=C1C2CCCCC2(Cl)C(=O)N1c1ccc(Cl)cc1 (stereo not drawn)
187 to 188 °C	Oc1cc(Cl)c(N2CCOCC2)cc1Oc1ccc(Cl)cc1Cl

From a melting point compilation (Tetko et al.; mined from patent text by program, amines drawn as free bases though some values may be those of a salt)
